From publication PMC10630452, “The tumor-enriched small molecule gambogic amide suppresses glioma by targeting WDR1-dependent cytoskeleton remodeling” (Signal Transduction and Targeted Therapy, 2023) come the findings set out here.

The IC50 is the concentration at which inhibition is half-maximal. Read a low IC50 as higher potency.

SMILES strings stand for the structures.

For series [1], the system named is GSC2 intracranial xenograft. Put plainly: GSC2-derived intracranial xenograft model. Particulars: 1 mg/kg i.v. daily for 13 days. In kind it is in vivo, nude mice. The method, then:
(§1) Fig. 3 The inhibitory effects of GA-amide in glioma stem cell-derived mouse models and transgenic mouse models. a, b GSC2 cells were implanted s.c. into nude mice. Mice were treated with control (DMSO) (n = 7) or GA-amide (2 mg/kg) (n = 8) via i.p. injection once daily for 11 days, after which a photograph (a) was taken to show the tumor volume, and the tumor volume was calculated by a modified ellipsoid formula in (b). c, d GSC2 cells were implanted intracranially into nude mice. Mice were injected i.v. with control (n = 8) or 1 mg/kg GA-amide (n = 8) daily for 13 days, the Mantel‒Cox log–rank test was used for analysis, and the relative survival curves are shown in (c). The body weights are shown in (d). e In vivo efficacy studies of GA-amide using transgenic mouse models. Glioma was induced in transgenic C57BL/6 mice by injection of pTomo-Ras-sip53 lentivirus, and the strategy is shown. f, g MRI analysis was used to group mice into the control (n = 7) and GA-amide-treated groups (n = 8) before treatment. […]
For the intracranial xenograft mouse models, 1 × 10^5 GSC2 or U87MG-SLC cells were injected into the frontal cortex (1 mm rostral to the bregma, 2 mm lateral to the midline, and 3 mm deep) using a microsyringe (Hamilton). […] The tumor size was measured by MRI, and survival analysis was performed in a blinded manner.

Another series has as its target T1, WDR1 (Homo sapiens, UniProt O75083).
T1 construct: GA-amide protected WDR1 at different temperature gradients in the CETSA in T2-4 cells; endogenous in cells; host or cells: T2-4 patient-derived glioma cells
Put plainly: Drug affinity responsive target stability (DARTS) in T2-4 cells. In kind it is binding. Particulars: T2-4 lysate, 1 h incubation, pronase 30 min. The method, then:
The drug affinity responsive target stability (DARTS) method was performed following a previously described procedure.[32] In brief, cells were collected and lysed with M-PER lysis buffer (catalog 78501, Thermo Fisher Scientific) containing complete protease inhibitor (catalog 04693124001, Roche) and phosphatase inhibitors (catalog 04906845001, Roche). Then, the lysis buffer was supplemented with TNC buffer. The lysates were aliquoted into 1.5 mL tubes and incubated with DMSO or different concentrations of GA-amide for 1 h at room temperature. After incubation, the lysates were digested with 1 μg of pronase for every 300 μg of lysate for exactly 30 min. Then, protein loading buffer was added immediately, and the lysates were heated to stop proteolysis. Western blot analysis was performed for further analysis.

Series [2] concerns intracranial orthotopic glioma PDX. In words: Intracranial orthotopic PDX model (GBM2). In kind it is in vivo, NSG mice. Particulars: 1 mg/kg i.v. daily for 10 days. The method, then: as §1
For the intracranial PDX model, the tumor tissue (GBM2) will be mechanically minced using scissors and then […] NSG mice (Male, 6–8 weeks). […] After 7 days of tumor development, the mice were grouped dependent on the tumor size measured by MRI. […] After treatment, the tumor size was measured by MRI again.

The subject of series [3] is GSC2 subcutaneous xenograft. In words: GSC2-derived subcutaneous xenograft model. In kind it is in vivo, nude mice. The following applies: 2 mg/kg i.p. once daily for 11 days. As for the experimental part:
as §1, with “treatment. The statistical results are shown in (f), and representative MRI images are shown in (g).” for “treatment.”

Series [4] relates to glioma-related cells (PDCs, GCs and GSCs). Put plainly: IC50 assay (MTS cell viability), span over cell lines. In kind it is cell-based. The following applies: span over PDC, GC and GSC lines. As for the experimental part:
Four PDC lines (T12-1, T12-2, T2-4, T19-1) obtained from the Beijing Tiantan Hospital[53] and three GSC lines (GSC2, U87MG-SLC, U251-SLC) were established and verified in our previous work.[17] Two GCSC lines were kindly provided by Dr. Ran.[54] These cell lines were cultured in neurobasal medium (Gibco) containing 2% B27 (Gibco), 1% 100 × Antibiotic-Antimycotic (Gibco), 2 mmol/L L-glutamine (catalog SH30034.01, HyClone), 20 ng/mL bFGF (catalog 100-18B-50UG, PeproTech), 20 ng/mL EGF (catalog AF-100-15-100UG, PeproTech), and 10 μg/mL heparin (Sigma‒Aldrich). H1-NSCs obtained from D.Q. Pei’s laboratory (Guangzhou Institutes of Biomedicine and Health, Chinese Academy of Sciences, Guangzhou, China), were cultured in the same medium as the PDCs, with the addition of 1% N-2 supplement (Gibco, Thermo Fisher Scientific). The human astrocyte (HA) cell line was purchased from ScienCell and cultured in commercial astrocyte medium (catalog 1801, ScienCell) supplemented with 1% AGS (ScienCell), 2% FBS (ScienCell) and 1% P/S solution (ScienCell). […]
Cells were seeded in 96-well plates and treated with 0, 0.03, 0.1, 0.3, 1, 3, 10, or 30 μM GA-amide (Santa Cruz) in triplicate. After 48 h of incubation, cell viability was quantified using the MTS assay, and the GA-amide cytotoxicity curve was estimated using GraphPad Prism.

The test system of another series is PDCs. In words: Apoptosis assay (annexin V/PI flow cytometry). In kind it is cell-based, human. The following applies: 4 h, varying concentrations. The method, then: An apoptosis detection kit (KeyGEN BioTECH) was used for the PDC apoptosis assay. After treatment with different concentrations of GA-amide, cells were collected and resuspended in 100 µL of binding buffer with 1 µl FITC Annexin V and 1 µl PI for 15 min at room temperature in the dark. The cell suspensions were analyzed by flow cytometry within 1 h.
(In general: In flow cytometry, cells or beads pass a laser one at a time.)

T1 sequence (O75083 whole entry): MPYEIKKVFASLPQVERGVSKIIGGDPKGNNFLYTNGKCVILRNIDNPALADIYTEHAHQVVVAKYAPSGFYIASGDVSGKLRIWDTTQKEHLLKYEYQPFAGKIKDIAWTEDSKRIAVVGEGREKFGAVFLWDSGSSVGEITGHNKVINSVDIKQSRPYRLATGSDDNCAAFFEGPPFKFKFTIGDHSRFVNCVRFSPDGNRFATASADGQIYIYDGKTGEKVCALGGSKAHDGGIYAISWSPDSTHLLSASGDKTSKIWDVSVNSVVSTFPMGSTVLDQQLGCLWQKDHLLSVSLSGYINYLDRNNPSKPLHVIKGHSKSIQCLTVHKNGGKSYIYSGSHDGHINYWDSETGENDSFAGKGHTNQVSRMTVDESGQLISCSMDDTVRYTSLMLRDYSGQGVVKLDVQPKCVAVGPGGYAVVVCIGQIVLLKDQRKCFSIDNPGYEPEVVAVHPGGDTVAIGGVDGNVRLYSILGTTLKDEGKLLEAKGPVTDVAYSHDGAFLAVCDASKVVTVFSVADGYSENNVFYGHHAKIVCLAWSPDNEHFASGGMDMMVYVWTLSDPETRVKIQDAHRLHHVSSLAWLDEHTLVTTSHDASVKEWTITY

With `CC(C)=CCC[C@]1(C)C=Cc2c(O)c3c(c(CC=C(C)C)c2O1)O[C@]12C(=C[C@@H]4CC1C(C)(C)O[C@@]2(C/C=C(/C)C(N)=O)C4=O)C3=O` [GA-amide, gambogic amide], in series [1], the “mouse body weight versus control” value is “no significant difference in mouse body weight” and the survival result is reported as “prolonged survival times”. Further, the “WDR1 stabilization against pronase digestion” value at WDR1 is listed as “significantly promoted WDR1 stabilization during pronase-induced degradation”. Further, the “tumor volume by MRI versus control” value in series [2] is recorded as “significantly smaller compared to the control mice”. For the same compound, the tumor growth result in series [3] is listed as “significantly inhibited the growth of tumors”. The compound further returned an IC50 in series [4] of 133 to 399 nM. For the same compound, in the series with PDCs, the “apoptosis (annexin V/PI)” value is “significantly induced the apoptosis of PDCs in a dose-dependent manner”.
